The source of these data is ChEMBL document CHEMBL1201862, “PubChem BioAssay data set” (2004).

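Cultured in 96-well plates, cells were exposed to test compound for 48 hours across five concentrations. The concentration for 50% growth inhibition is given as GI50.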 Activity calls are given as the source filed them. Cut-off read from the data, not from the text of the source: active = GI50 up to about 1.1 µM and inactive = higher.

Holding throughout (test): NCI anticancer screen, dose series, 48 h
Experiment [1] concerns IGROV-1.
The subject of experiment [2] is U-251.
Experiment [3] deals with NCI-H226.
The subject of experiment [4] is HOP-62.
Experiment [5] has as its system K562.
Experiment [6] deals with SR.
In experiment [7] the test system is XF498.
For experiment [8], the system named is HCT-116.
For experiment [9], the system named is SN12C.
Experiment [10] relates to UO-31.
In experiment [11] the test system is SK-OV-3.
Experiment [12] deals with MOLT-4.
Experiment [13] concerns SF-295.
Experiment [14] deals with LXFL 529.
Experiment [15] relates to A498.
Experiment [16] has as its system SNB-75.
Experiment [17] concerns SK-MEL-2.
For experiment [18], the system named is HOP-92.
In experiment [19] the test system is NCI/ADR-RES.
For experiment [20], the system named is PC-3.

On to `CCCCCCCCCC(=O)NC(Cc1ccc(O)cc1)C(=O)NCCCNCCCCNCCCNC(=O)[C@@H](N)CCCN=C(N)N` (some centres not stated), for which the GI50 in [1] is 17.9 µM (inactive); in experiment [2] it was > 10 µM (inactive); in experiment [3], 61.2 µM (inactive); in [4], 22.9 µM (inactive); in [5] it was 29.9 µM (inactive); in experiment [6], 73.3 µM (inactive). The GI50 in [7] is > 100 µM (inactive); in experiment [8] it was > 100 µM (inactive); in [9] it was 60.7 µM (inactive); in experiment [10], 31.9 µM (inactive); in experiment [11], 36.6 µM (inactive); in experiment [12], > 100 µM (inactive). Also, the values for the GI50 in experiment [13] and in experiment [14] were 29 µM (inactive) and 77.3 µM (inactive), respectively.
For the compound `CC[C@@]1(O)CC(OC2CC(N3CCOCC3)C(O)C(C)O2)c2c(O)c3c(c(O)c2[C@H]1O)C(=O)c1cccc(O)c1C3=O` (some centres not stated), the GI50 in experiment [1] is 0.0959 µM (active); in experiment [2], 0.08 µM (active); in [15], 0.191 µM (active); in experiment [3], 0.0893 µM (active); in [4] it was 0.0679 µM (active); in experiment [5], 0.112 µM (active). The GI50 is 0.0193 µM (active) in [6]; 0.0493 µM (active) in [7]; 0.0519 µM (active) in experiment [8]; 0.139 µM (active) in [16]; 0.0667 µM (active) in experiment [9]; 0.312 µM (active) in [17]. Moreover, the GI50 in experiment [18] is 0.0429 µM (active); in [11], 0.126 µM (active); in experiment [13] it was 0.0575 µM (active); in [19], 0.145 µM (active); in [20] it was 0.0957 µM (active).
Consider `CCOC1=NC(=O)CC(c2ccccc2)S1` (configuration not stated), for which the GI50 in experiment [1] is > 100 µM (inactive); in [2], 49.2 µM (inactive); in experiment [15], > 100 µM (inactive); in [3], 27.8 µM (inactive); in experiment [5], > 100 µM (inactive); in [7], > 100 µM (inactive). The GI50 in experiment [8], in [9], in experiment [10], in experiment [17], in [18] and in [12] was > 100 µM (inactive) each time. Besides, the GI50 in [13] and in [14] was > 100 µM (inactive) each time.
In the case of `CC(=O)CCC1(c2ccccc2)OC(=O)C(C#N)=C1c1ccccc1` (configuration not stated), the GI50 in [1] was > 100 µM (inactive); in experiment [2], 88.1 µM (inactive); in [15], > 100 µM (inactive); in experiment [4], > 100 µM (inactive); in experiment [5], 50.6 µM (inactive); in [7], > 100 µM (inactive). For the same compound, the GI50 in experiment [8] was 47.6 µM (inactive); in experiment [16], 29.4 µM (inactive); in experiment [9] it was > 100 µM (inactive); in experiment [10], 29.2 µM (inactive); in experiment [17], > 100 µM (inactive); in experiment [18], 50 µM (inactive). Besides, the GI50 in [11] is > 100 µM (inactive); in experiment [12], 33.7 µM (inactive); in [13], > 100 µM (inactive); in experiment [14], 59.4 µM (inactive).
With `CCCCCCC(=O)OC[n+]1ccc2c(C)c3[nH]c4ccccc4c3c(C)c2c1`, the GI50 in experiment [1] is 1.47 µM (inactive); in [2], 0.552 µM (active); in experiment [15], 1.01 µM (active); in [3], 1.46 µM (inactive); in experiment [4], 2.08 µM (inactive); in experiment [6], 0.101 µM (active). Besides, the GI50 was 0.376 µM (active) in [8]; 1.85 µM (inactive) in experiment [16]; 0.404 µM (active) in experiment [9]; 3.42 µM (inactive) in [10]; 5.38 µM (inactive) in experiment [17]; 3.18 µM (inactive) in experiment [18]. In addition, the GI50 in experiment [11] was 1.83 µM (inactive); in experiment [12], 0.118 µM (active); in experiment [13], 0.836 µM (active); in experiment [14], 0.785 µM (active).
Turning to `COCN1COCN(C)C1=O`, the GI50 in experiment [1], in experiment [2], in experiment [15], in experiment [3], in [4] and in [5] was > 100 µM (inactive) throughout. The GI50 in [7], in [8], in [16], in experiment [9], in experiment [10] and in experiment [17] was > 100 µM (inactive) in each case. Further, the GI50 in [18], in [11] and in [13] was > 100 µM (inactive) throughout.
With `C[C@@H](NC1CCC[C@@H]1O)c1ccccc1` (some centres not stated), the GI50 in experiment [1], in experiment [2], in experiment [3], in experiment [4], in experiment [5] and in [7] was > 100 µM (inactive) throughout. Further, the GI50 in experiment [8], in experiment [16], in experiment [9], in [10], in experiment [17] and in [18] was > 100 µM (inactive) in each case. Further, the GI50 in experiment [11], in experiment [12], in [13] and in experiment [14] was > 100 µM (inactive) throughout.
Take `O=C1/C(=N\O)c2ccccc2S1(=O)=O`: the GI50 was > 100 µM (inactive) in experiment [1]; > 100 µM (inactive) in [2]; 39.7 µM (inactive) in [15]; 19.4 µM (inactive) in [3]; > 100 µM (inactive) in [4]; > 100 µM (inactive) in experiment [5]. Also, the GI50 in experiment [6] was 79.3 µM (inactive); in experiment [8], > 100 µM (inactive); in experiment [16], 66.2 µM (inactive); in experiment [9], > 100 µM (inactive); in experiment [10], > 100 µM (inactive); in experiment [17], > 100 µM (inactive). The GI50 in experiment [18] was > 100 µM (inactive); in experiment [11] it was > 100 µM (inactive); in experiment [12], > 100 µM (inactive); in experiment [13], > 100 µM (inactive); in experiment [14], 69.2 µM (inactive).
For the compound `N#CC1CCCCOCCOCCOCCOCCOCCCCCC1=O` (configuration not stated), the GI50 in [1], in [2], in experiment [15], in experiment [3], in experiment [4] and in experiment [5] was > 100 µM (inactive) in each case. Further, the GI50 in [6], in experiment [8], in [16], in experiment [9], in experiment [10] and in experiment [17] was > 100 µM (inactive) in each case. Also, the GI50 in experiment [11], in experiment [12], in [13] and in experiment [14] was > 100 µM (inactive) throughout.
Regarding `CCOC(=O)Nc1ccc(S(=O)(=O)OC)cc1.CCOC(=O)Nc1ccc(S(=O)(=O)OC)cc1.Nc1ncnc2c1ncn2C1OC(CO)C(O)C1O` (configuration not stated), the GI50 in experiment [1] is > 100 µM (inactive); in experiment [15] it was > 100 µM (inactive); in experiment [3], > 100 µM (inactive); in experiment [4], > 100 µM (inactive); in experiment [5] it was 23 µM (inactive); in experiment [7], 92.3 µM (inactive). Further, the GI50 in experiment [8] was 17.5 µM (inactive); in experiment [16] it was > 100 µM (inactive); in experiment [9], > 100 µM (inactive); in [10], > 100 µM (inactive); in experiment [17], > 100 µM (inactive); in experiment [18], > 100 µM (inactive). Besides, the GI50 in [11], in experiment [12], in [13] and in experiment [14] was > 100 µM (inactive) each time.
Turning to `NC1=NS(=O)(=O)Nc2nc(-c3ccc([N+](=O)[O-])cc3)[nH]c21`, the GI50 in experiment [1], in experiment [2], in experiment [4], in experiment [5], in [6] and in experiment [8] was > 100 µM (inactive) each time. For the same compound, the GI50 in experiment [16], in experiment [9], in experiment [10], in experiment [17], in experiment [18] and in experiment [11] was > 100 µM (inactive) each time. The GI50 in [12], in experiment [13] and in experiment [14] was > 100 µM (inactive) throughout.
With `O=C1CC(c2c[nH]c3ccccc23)C(=O)N1` (configuration not stated), the GI50 in [1], in experiment [2], in [15], in experiment [3], in experiment [4] and in experiment [5] was > 100 µM (inactive) throughout. For the same compound, the GI50 in experiment [7], in [8], in [16], in experiment [10], in [17] and in [11] was > 100 µM (inactive) in each case. Moreover, the GI50 in [12], in [13] and in experiment [14] was > 100 µM (inactive) each time.
With `COC(=O)/C(C#N)=C1\CCC(Nc2cccc(C(F)(F)F)c2)N1C` (configuration not stated), the GI50 was > 100 µM (inactive) in [1]; > 100 µM (inactive) in [2]; > 100 µM (inactive) in experiment [3]; > 100 µM (inactive) in experiment [4]; 45.8 µM (inactive) in [5]; 66.2 µM (inactive) in [7]. For the same compound, the GI50 in experiment [8] was > 100 µM (inactive); in experiment [16], 43.3 µM (inactive); in [9] it was > 100 µM (inactive); in [10], 63.1 µM (inactive); in experiment [17], > 100 µM (inactive); in [11] it was 84.3 µM (inactive). The figures for the GI50 in experiment [12], in experiment [13] and in experiment [14] were 51.6 µM (inactive), > 100 µM (inactive) and 74 µM (inactive), respectively.
